According to the OligoGym collection:
Several values for one entry are separate records, joined by “and”; a condition that tells them apart may be missing. Equal entries are not always repeated. After the bases stand the sugars from the 5' end (letter, count) and the backbone: PS all phosphorothioate, else s phosphorothioate and o phosphodiester by linkage. Methylation of C is not given here. e = 2'-O-(2-methoxyethyl) (MOE); k = constrained ethyl (cEt); d = 2'-deoxy (DNA)

Key:
APOL1 = conditions: ASO
MALAT1 = conditions: ASO, A431, 0.005 µM

| Sequence | target mRNA inhibition (MALAT1) | also measured |
| --- | --- | --- |
| GAGAACATTGAAACAC (sugars k3 d10 k3, PS) | – | target mRNA inhibition (APOL1; A431, 0.0625 µM): 19%; target mRNA inhibition (APOL1; A431, 0.25 µM): 65%; target mRNA inhibition (APOL1; A431, 1 µM): 86% |
| TCTATTAGAGGGCTAG (sugars kkddddkdkdkddddd, PS) | – | target mRNA inhibition (APOL1; A431, 2 µM): 68% |
| GAAGCTTTAAACTCAG (sugars kkddddkekekddddd, PS) | – | target mRNA inhibition (APOL1; A431, 2 µM): 84% |
| GTTTTGTAAGTGCAAC (sugars kkddddekekeddddd, PS) | – | target mRNA inhibition (APOL1; A431, 2 µM): 86% |
| TTTTGTAAGTGCAACC (sugars k2 d4 e3 k2 d5, PS) | – | target mRNA inhibition (APOL1; A431, 2 µM): 99% |
| TTCTATTAGAGGGCTA (sugars kkddddkdkdkddddd, PS) | – | target mRNA inhibition (APOL1; A431, 2 µM): 87% |
| CTGTGATGTGGGACTT (sugars k4 d9 k3, PS) | – | target mRNA inhibition (APOL1; A431, 0.0625 µM): 50%; target mRNA inhibition (APOL1; A431, 0.25 µM): 76%; target mRNA inhibition (APOL1; A431, 1 µM): 89% |
| TGTAAGTGCAACCAAT (sugars kdddddkekekddddd, PS) | – | target mRNA inhibition (APOL1; A431, 2 µM): 81% |
| TTATGAAATTATTGGT (sugars k2 d4 e4 k2 d4, PS) | – | target mRNA inhibition (APOL1; A431, 2 µM): 35% |
| TGGTTCAAAAGCAGCA (sugars kkkddddkekekdddd, PS) | – | target mRNA inhibition (APOL1; A431, 2 µM): 57% |
| CTCACGGATTTTTACC (sugars k3 d10 k3, PS) | 7% | – |
| ATATCTTAGTAACCTA (sugars k3 d10 k3, PS) | 15% | – |
| TGCTTGGGAAATCTTA (sugars k3 d10 k3, PS) | 23% | – |
| ACATATTGCCGACCTC (sugars k3 d10 k3, PS) | 43% | – |
| TCTCTTGAGGGACAGT (sugars k3 d10 k3, PS) | -7% | – |
| CCCCCCACGGCCCGCA (sugars k3 d10 k3, PS) | 26% | – |
| TCCCTGTTAAGACCAT (sugars k3 d10 k3, PS) | 27% | – |
| TTATACATCAAGGATG (sugars k3 d10 k3, PS) | 4% | – |
| CATACAAACTGCTTAC (sugars k3 d10 k3, PS) | 29% | – |
| CTCAGGGTTATGCTTA (sugars k3 d10 k3, PS) | 40% | – |
| CCCATAACTGATCTGA (sugars k3 d10 k3, PS) | 42% | – |
| AAAACCCCCGGAACTT (sugars k3 d10 k3, PS) | 9% | – |

| Sequence | target mRNA inhibition (MALAT1) | also measured |
| --- | --- | --- |
| TCTAACCCAGTTTGTC (sugars k3 d10 k3, PS) | 31% | – |
| AGCACGGGCTGTCTGC (sugars k3 d10 k3, PS) | 7% | – |
| CTGCGCTTAAGAGGGC (sugars k3 d10 k3, PS) | 34% | – |
| CAACATATTGCCGACC (sugars k3 d10 k3, PS) | -26% | – |
| CAGGGCTTTACTTTCC (sugars k3 d10 k3, PS) | 2% | – |
| GAATTAAGACCAAGGG (sugars k3 d10 k3, PS) | 36% | – |
| TCGGTTTAATCTCTTT (sugars k3 d10 k3, PS) | 63% and 73% | – |
| CTTAAGAGGGCAGGAG (sugars k3 d10 k3, PS) | -4% | – |
| CAATGCCTACCGCACA (sugars k3 d10 k3, PS) | 16% | – |
| CAGTAGGCCAGACCAA (sugars k3 d10 k3, PS) | 14% | – |
| ATCCACTTCTGTGTAG (sugars k3 d10 k3, PS) | 38% | – |
| CCTCAGTTACACATCC (sugars k3 d10 k3, PS) | 49% | – |
| CCCTAACATGCAATAC (sugars k3 d10 k3, PS) | 14% | – |
| CTGTGGTGGTCTGATT (sugars k3 d10 k3, PS) | 33% | – |
| CATTACGCAACTGAGC (sugars k3 d10 k3, PS) | -1% | – |
| AAACTAAGCTACTATA (sugars k3 d10 k3, PS) | -17% | – |
| AGCACCTGGGTCAGCT (sugars k3 d10 k3, PS) | -5% | – |
| TACCTAAACCCACCCC (sugars k3 d10 k3, PS) | 6% | – |
| CTGATTCTAACAGCAC (sugars k3 d10 k3, PS) | 55% and 49% and 50% | – |
| TCCCCCAACTGCTTGC (sugars k3 d10 k3, PS) | 11% | – |
| AATCTAAAAGCATTGC (sugars k3 d10 k3, PS) | 30% | – |
| ATAAGGTCAATAGTGT (sugars k3 d10 k3, PS) | 38% | – |

| Sequence | target mRNA inhibition (MALAT1) | also measured |
| --- | --- | --- |
| TCTAAATTGGTTCTGG (sugars k3 d10 k3, PS) | 55% and 64% | – |
| ACCTACAACACCCGGA (sugars k3 d10 k3, PS) | 25% | – |
| GAGCATTGGAGATCAG (sugars k3 d10 k3, PS) | 29% | – |
| CACCACCTGGAATGGC (sugars k3 d10 k3, PS) | 8% | – |
| TTCTAACTTCTGCACC (sugars k3 d10 k3, PS) | 33% | – |
| AAAGTAGTTCTTCGGT (sugars k3 d10 k3, PS) | 17% | – |
| GAGTTCAAGTGGCCTT (sugars k3 d10 k3, PS) | 17% | – |
| CCAAGATTGCCCCAAC (sugars k3 d10 k3, PS) | 14% | – |
| GGTTAGGTATGAGCTT (sugars k3 d10 k3, PS) | 8% | – |
| CCCCGTCCTGGAAACC (sugars k3 d10 k3, PS) | 21% | – |
| CTTCTATAGTCTGAAG (sugars k3 d10 k3, PS) | 18% | – |
| TCTGATTATCCTGATA (sugars k3 d10 k3, PS) | 11% | – |
| CCTTTGTGAGGGAGGC (sugars k3 d10 k3, PS) | -5% | – |
| AATACCCTTCTGTTAA (sugars k3 d10 k3, PS) | 16% | – |
| CGAGAAATCGGAGCAG (sugars k3 d10 k3, PS) | 22% | – |
| TCTAGGATCCTCTACG (sugars k3 d10 k3, PS) | -24% | – |
| ACTGCTTACAGATTTG (sugars k3 d10 k3, PS) | 61% and 64% | – |
| ATATTTAACTTCCCCC (sugars k3 d10 k3, PS) | 30% | – |
| GCAAGGTCTCATACAC (sugars k3 d10 k3, PS) | 48% and 59% | – |
| ACTCAAAGTCCAATGC (sugars k3 d10 k3, PS) | 31% | – |
| CCCCAGTTGCCGCCAG (sugars k3 d10 k3, PS) | -18% | – |
| TTCCAGGATTAATGTA (sugars k3 d10 k3, PS) | 37% | – |

| Sequence | target mRNA inhibition (MALAT1) | also measured |
| --- | --- | --- |
| CCCCAATGGAGGTATG (sugars k3 d10 k3, PS) | 37% | – |
| ATCTGCGGCCCCCCAG (sugars k3 d10 k3, PS) | -8% | – |
| GCAGCGGGATCAGAAC (sugars k3 d10 k3, PS) | 34% | – |
| AACCCCCGGAACTTTT (sugars k3 d10 k3, PS) | 1% | – |
| TTTTAAAAGATCGCCT (sugars k3 d10 k3, PS) | 33% | – |
| GATGTGATTTTTAACC (sugars k3 d10 k3, PS) | 52% and 56% | – |
| CTTGAAGACTGTTGCT (sugars k3 d10 k3, PS) | 42% | – |
| AGGTTCTAGTTTTACT (sugars k3 d10 k3, PS) | 16% | – |
| TCCCTTCAGGATCATT (sugars k3 d10 k3, PS) | 10% | – |
| TCCGTAACTTTAAATT (sugars k3 d10 k3, PS) | 36% | – |
| TTCACCAAATCGCACT (sugars k3 d10 k3, PS) | 29% | – |
| TCAATCCACTTGATCC (sugars k3 d10 k3, PS) | 14% | – |
| GACTTTCTCCCCCAAC (sugars k3 d10 k3, PS) | 6% | – |
| AAATTTCCTTAGTTGG (sugars k3 d10 k3, PS) | 54% | – |
| GCAGTAGGGCTTCTCA (sugars k3 d10 k3, PS) | -8% | – |
| CCCCAGTTCAATACTT (sugars k3 d10 k3, PS) | 25% | – |
| GAAATCCCTTCAGGAT (sugars k3 d10 k3, PS) | 14% | – |
| GTTACACCTTGAGTCA (sugars k3 d10 k3, PS) | 53% | – |
| AGTGTAAAACATTGCC (sugars k3 d10 k3, PS) | 7% | – |
| GTACGAAACTCCCCCA (sugars k3 d10 k3, PS) | 38% | – |
| ACAAAACCCCCGGAAC (sugars k3 d10 k3, PS) | -153% | – |
| TGCCAACAGCACAGCG (sugars k3 d10 k3, PS) | 1% | – |

| Sequence | target mRNA inhibition (MALAT1) | also measured |
| --- | --- | --- |
| ACTGGTACACCCAGTG (sugars k3 d10 k3, PS) | -8% | – |
| CTGTGGTTTTAATACC (sugars k3 d10 k3, PS) | 51% | – |
| AACTTGCCATCTACTA (sugars k3 d10 k3, PS) | -18% | – |
| AGAAGTCTCGGGCTGC (sugars k3 d10 k3, PS) | 8% | – |
| TAACTGATCTGACTTT (sugars k3 d10 k3, PS) | 26% | – |
| GTCTCATACACTCACT (sugars k3 d10 k3, PS) | -4% | – |
| AGTTAATGTCAGCCCA (sugars k3 d10 k3, PS) | 34% | – |
| AGTTATATTAGGTTCT (sugars k3 d10 k3, PS) | 22% | – |
| TCCCGTACTTCTGTCT (sugars k3 d10 k3, PS) | 41% | – |
| AATGGACATCTCTTCC (sugars k3 d10 k3, PS) | 27% | – |
| ATCCACTTGATCCCAA (sugars k3 d10 k3, PS) | 16% | – |
| TCCCCCATTATATTAG (sugars k3 d10 k3, PS) | 14% | – |
| ACTGAAGAGCATTGGA (sugars k3 d10 k3, PS) | 34% | – |
| CAACAAGTAAGCCCCA (sugars k3 d10 k3, PS) | 0% | – |
| AATACGACTGCTTAAA (sugars k3 d10 k3, PS) | 30% | – |
| ACTCCCCCATTATATT (sugars k3 d10 k3, PS) | 2% | – |
| GATCATAATCTCCCAC (sugars k3 d10 k3, PS) | 41% | – |
| GGTCTAGGATCCTCTA (sugars k3 d10 k3, PS) | 23% | – |
| TATCTGTTAACAGCTG (sugars k3 d10 k3, PS) | 41% | – |
| CAAGGCACTGATCACT (sugars k3 d10 k3, PS) | 48% | – |
| TACTGCATTTACTTGC (sugars k3 d10 k3, PS) | 20% | – |
| TAGGGAAAAGTGGTTG (sugars k3 d10 k3, PS) | -13% | – |
